Measurements from paper PMC10318456, “Selective inhibitors of the PSEN1–gamma-secretase complex” (The Journal of Biological Chemistry, 2023).
“And” between values parts separate entries of the source, which are not always exact repeats. Equal values may be shown once. Read-outs that look alike come from different tables or passages of the source. One block for each molecule: values may come before it.

How the values were obtained:
[1] = test system: PSEN1 versus PSEN2 γ-secretase complexes; assay: Comparison of the four MEF cell lines: selectivity between γ-secretase complexes (IC50 ratios); format: cell-based, human
Source text: (§1) Mouse embryonic fibroblast (MEF) cells deficient for the Psen and Aph1 genes (Psen1/2^−/−, Aph1ABC^−/−) were reconstituted with human PSEN1 or PSEN2 and with human APH1A or APH1B to generate four independent cell lines, each constitutively expressing exclusively one type of γ-secretase complex (Fig. S1A) ([19]). A human APP-C99-GFP reporter was introduced to enable the measurement of Aβ peptides in the conditioned media of the cells to monitor γ-secretase activity. The assay was established in a 96-well format.
GraphPad Prism 7 software was used to generate inhibition fitting curves (four-parameter logistic equation, nonlinear regression) and to determine IC50 and 95% CI values (Fig. S2). Selectivity values (IC50 ratios of PSEN1 versus PSEN2) above 10 are highlighted in red.
(§2) The number of plated cells and incubation times were determined in respect to linearity of Aβ peptide secretion, the dynamic range of Aβ peptide quantification in the medium, and sensitivity to dimethylsulfoxide (DMSO). […] MEF cells were plated in DMEM F12 supplemented with 10% FCS at 10,000 cells per well in 96-well clear bottom plates in the late afternoon and cultured for 16 h at 37 °C, 5% CO2. In the morning of the second day, the medium was replaced with 60 μl of DMEM/F12 supplemented with 2% FCS, and GSI or DMSO (controls) were added. Compounds were tested in serial dilutions with concentrations ranging from […] to 0.1 nM with 3-fold changes. The final concentration of DMSO in all wells was 0.2%. Plates were put in the incubator again at 37 °C, 5% CO2. After 8 h, the culture media were collected, and 30 μl was used to measure Aβ40 peptides. The cell viability was assessed using the CellTiter-Glo Luminescent assay (Promega) that measures ATP production. All screens were performed at one site, and reported IC50 values throughout the manuscript are from this site (Beerse) unless otherwise indicated.
GraphPad Prism 7 software (https://www.graphpad.com) was used to generate inhibition fitting curves (four-parameter logistic equation, nonlinear regression) and to determine IC50 values and 95% CI.

[2] = target: T1, PSEN1-APH1B γ-secretase complex (Homo sapiens, UniProt P49768); assay: Aβ40 secretion by MEF cell line expressing only PSEN1-APH1B γ-secretase (APP-C99-GFP reporter); format: cell-based
T1 construct: expressed in transfected cells; host or cells: Psen1/2 double KO/Aph1ABC triple KO MEFs, pMSCV retroviral PSEN-IRES-APH1
Source text: as §1
(§3) Conditional Psen1/2 double KO mice were crossed with conditional Aph1ABC triple KO mice ([29], [52], [58], [59]). At embryonic day 7.5, embryos were dissected and dissociated, and cells were plated in the presence of Dulbecco’s modified Eagle’s medium (DMEM)/F12 50% fetal calf serum (FCS) (Invitrogen). Primary MEFs were immortalized by transduction with LargeT antigen. Psen1/2 double KO/Aph1ABC triple KO MEFs were generated by transduction with a Cre-GFP–expressing adenoviral vector, and GFP-positive MEFs were sorted by fluorescence-activated cell sorting analysis. Psen1/2 Aph1ABC-deficient MEFs were maintained in DMEM/f12 10% FCS. To rescue γ-secretase expression, Psen1/2 double KO/Aph1ABC triple KO MEFs were transduced using Murine Stem Cell Virus retroviral vector system (pMSCV) viral vectors (Clontech) containing the human coding sequences of the different PSEN and APH1 homologs and the zeocin selection marker. An Internal Ribosome Entry Site sequence was cloned between the coding sequences for PSEN and APH1 to ensure co-expression of both proteins. Stable transfected cell lines were selected using 500-μg/ml zeocin (Invitrogen). Four different combinations were made: PSEN1 and APH1AL, PSEN1 and APH1B, PSEN2 and APH1AL, and PSEN2 and APH1B. These cell lines were transduced with pMSCV viral vectors (Clontech) expressing APP-C99-GFP-puromycin. After puromycin selection (5 μg/ml), GFP-positive cells were selected through FACS sorting. For the alanine mutagenesis experiment, pMSCV PSEN1-APH1A viral vectors were generated by using a long PCR-based QuikChange strategy (Stratagene). Stable cell lines without clonal selection were generated for each mutant as described above. All cell lines were regularly tested for the absence of mycoplasma and used for maximum 20 passages in culture.
as §2
Standard 96-well SECTOR plates (MSD) were coated with 1.5 μg/ml anti-Aβ JRFcAβ40/28 capture antibody in a final volume of 50 μl of PBS 0.05% Tween 20.

[3] = target: T2, PSEN2-APH1A γ-secretase complex (Homo sapiens, UniProt P49810); assay: Aβ40 secretion by MEF cell line expressing only PSEN2-APH1A γ-secretase (APP-C99-GFP reporter); format: cell-based; details: only the 95% CI is given
T2 construct: expressed in transfected cells; host or cells: Psen1/2 double KO/Aph1ABC triple KO MEFs, pMSCV retroviral PSEN-IRES-APH1
Source text: as §1
as §3, with “Four different combinations were made: PSEN1 and APH1AL, PSEN1 and APH1B, PSEN2 and APH1AL, and PSEN2 and APH1B. These cell lines were transduced with pMSCV viral vectors (Clontech) expressing APP-C99-GFP-puromycin. After puromycin selection (5 μg/ml), GFP-positive cells were selected through FACS sorting. For the alanine mutagenesis experiment, pMSCV PSEN1-APH1A viral vectors were generated by using a long PCR-based QuikChange strategy (Stratagene). Stable cell lines without clonal selection were generated for each mutant as described above. All cell lines were regularly tested for the absence of mycoplasma and used for maximum 20 passages in culture.” left out
(§4) The number of plated cells and incubation times were determined in respect to linearity of Aβ peptide secretion, the dynamic range of Aβ peptide quantification in the medium, and sensitivity to dimethylsulfoxide (DMSO). […] The cell viability was assessed using the CellTiter-Glo Luminescent assay (Promega) that measures ATP production. […]

[4] = target: T3, PSEN2-APH1B γ-secretase complex (Homo sapiens, UniProt P49810); assay: Aβ40 secretion by MEF cell line expressing only PSEN2-APH1B γ-secretase (APP-C99-GFP reporter); format: cell-based; details: only the 95% CI is given
T3 construct: expressed in transfected cells; host or cells: Psen1/2 double KO/Aph1ABC triple KO MEFs, pMSCV retroviral PSEN-IRES-APH1
Source text: as §1
(§5) Conditional Psen1/2 double KO mice were crossed with conditional Aph1ABC triple KO mice ([29], [52], [58], [59]). At embryonic day 7.5, embryos were dissected and dissociated, and cells were plated in the presence of Dulbecco’s modified Eagle’s medium (DMEM)/F12 50% fetal calf serum (FCS) (Invitrogen). […] Psen1/2 double KO/Aph1ABC triple KO MEFs were generated by transduction with a Cre-GFP–expressing adenoviral vector, and GFP-positive MEFs were sorted by fluorescence-activated cell sorting analysis. […]
as §4

[5] = target: T4, PSEN1-APH1A γ-secretase complex (Homo sapiens, UniProt P49768); assay: Aβ40 secretion by MEF cell line expressing only PSEN1-APH1A γ-secretase (APP-C99-GFP reporter); format: cell-based
T4 construct: expressed in transfected cells; host or cells: Psen1/2 double KO/Aph1ABC triple KO MEFs, pMSCV retroviral PSEN-IRES-APH1
Source text: as §1, §3, §4

[6] = test system: T cell acute lymphoblastic leukemia; parameters: method as in PMID 31142678; details: mice; cited from earlier work
[7] = test system: WT and PSEN2-deficient mice; parameters: method as in PMID 23197721; details: cited from earlier work
[8] = target: T5, PSEN2-APH1A γ-secretase complex (Homo sapiens, UniProt P49810+Q92542+Q96BI3+Q9NZ42); assay: Aβ40 secretion by MEF cell line expressing only PSEN2-APH1A γ-secretase (APP-C99-GFP reporter); format: cell-based; details: 8 h, Beerse site unless otherwise indicated, read-out: IC50, Aβ40 peptides
T5 construct: expressed in transfected cells; host or cells: Psen1/2 double KO/Aph1ABC triple KO MEFs, pMSCV retroviral PSEN-IRES-APH1
Source text: as §1
as §3, with “Four different combinations were made: PSEN1 and APH1AL, PSEN1 and APH1B, PSEN2 and APH1AL, and PSEN2 and APH1B. These cell lines were transduced with pMSCV viral vectors (Clontech) expressing APP-C99-GFP-puromycin. After puromycin selection (5 μg/ml), GFP-positive cells were selected through FACS sorting. For the alanine mutagenesis experiment, pMSCV PSEN1-APH1A viral vectors were generated by using a long PCR-based QuikChange strategy (Stratagene). Stable cell lines without clonal selection were generated for each mutant as described above. All cell lines were regularly tested for the absence of mycoplasma and used for maximum 20 passages in culture.” left out
as §4

[9] = target: T6, PSEN2-APH1B γ-secretase complex (Homo sapiens, UniProt P49810+Q8WW43+Q92542+Q9NZ42); assay: Aβ40 secretion by MEF cell line expressing only PSEN2-APH1B γ-secretase (APP-C99-GFP reporter); format: cell-based; details: 8 h, Beerse site unless otherwise indicated, read-out: IC50, Aβ40 peptides
T6 construct: expressed in transfected cells; host or cells: Psen1/2 double KO/Aph1ABC triple KO MEFs, pMSCV retroviral PSEN-IRES-APH1
Source text: as §1, §5, §4

[10] = test system: PSEN1–γ-secretase complex compared to PSEN2–γ-secretase complexes; details: cell-free in vitro assays; cited from earlier work
APP or Notch processing = details: in vitro; cited from earlier work
[11] = 8 h, Beerse site unless otherwise indicated, read-out: IC50, Aβ40 peptides
[12] = only the 95% CI is given, read-out: 95% CI of IC50

Structure (SMILES): C[C@H](NC(=O)[C@@H](O)c1cc(F)cc(F)c1)C(=O)N[C@@H]1C(=O)N(C)c2ccccc2-c2ccccc21 [LY411575]
- selectivity toward the different γ-secretase complexes ([1]; four MEF cell lines): < 10 fold
- potency toward all four γ-secretase activities ([1]; four MEF cell lines, in words): low nanomolar potencies
- selectivity toward the different γ-secretase complexes ([1]; four MEF cell lines, listed as LY-411575): without convincing selectivity

Structure (SMILES): O=C(O)CC[C@H]1CC[C@@](c2cc(F)ccc2F)(S(=O)(=O)c2ccc(Cl)cc2)CC1 [MK-0752]
- selectivity versus PSEN2–APH1A ([1]; MEF cell lines): 14 fold
- selectivity versus PSEN2–APH1B ([1]; MEF cell lines): 70 fold
- IC50 [5, 11]: 5.3 nM
- IC50 [2, 11]: 1.6 nM

Structure (SMILES): O=S(=O)(NC1CCC(c2cc(F)ccc2F)(S(=O)(=O)c2ccc(Cl)cc2)CC1)C(F)(F)F (stereo not drawn) [MRK-560, N-[cis-4-[(4-chlorophenyl)sulfonyl]-4-(2,5-difluorophenyl)cyclohexyl]-1,1,1-trifluoromethanesulfonamide]
- protection in T cell acute lymphoblastic leukemia [6]: protected the mice
- Aβ levels ([7]; WT and PSEN2-deficient mice): potently and dose dependently reduced Aβ levels
- safety of treatment ([7]; WT mice): safe
- Notch-related toxicity ([7]; mice genetically deficient for PSEN2): caused major Notch-related toxicity
- selectivity PSEN1–APH1B versus PSEN1–APH1A ([1]; MEF cell lines): 4 fold
- IC50 [8]: > 130 nM
- IC50 [9]: > 130 nM
- IC50 [5, 11]: 1.4 nM
- IC50 [2, 11]: 0.42 nM and 0.4 nM
- selectivity for PSEN1 complexes versus PSEN2 complexes [10]: 5 fold
- selectivity toward the PSEN1–γ-secretase complex compared to PSEN2–γ-secretase complexes [10]: 37 fold
- selectivity versus APP or Notch processing (APP or Notch processing): does not show selectivity

Continued, in another order:

- IC50 [2, 11]: 24.5 nM
Structure (SMILES): O=C1NCCCCC1N(Cc1ccc(Br)cc1)S(=O)(=O)c1ccc(Cl)cc1 (stereo not shown) [ELN-318463]
- selectivity for PSEN1 complexes versus PSEN2 complexes ([1]; IC50 ratios of PSEN1 versus PSEN2, MEF cell lines): 70 fold

- IC50 [3]: 992 to 2600 nM
- IC50 [4]: 2220 to 5740 nM
- IC50 [5, 12]: 1210 to 2370 nM
- IC50 [2, 12]: 597 to 3860 nM
Structure (SMILES): CC(C)C[C@H](NC(=O)[C@H](Cc1ccccc1)C[C@@H](O)[C@H](Cc1ccccc1)NC(=O)OC(C)(C)C)C(=O)N[C@@H](Cc1ccccc1)C(N)=O [L-685,458]
